According to US20060110732A1, “Method for the identification of ligands” (priority 2002, published 2006):
Read-outs that look alike come from different tables or passages of the source.

Legend:
[1] = target: T1, ER-α (Homo sapiens, UniProt P03372); test: biochemical
T1 sequence (P03372 1-595): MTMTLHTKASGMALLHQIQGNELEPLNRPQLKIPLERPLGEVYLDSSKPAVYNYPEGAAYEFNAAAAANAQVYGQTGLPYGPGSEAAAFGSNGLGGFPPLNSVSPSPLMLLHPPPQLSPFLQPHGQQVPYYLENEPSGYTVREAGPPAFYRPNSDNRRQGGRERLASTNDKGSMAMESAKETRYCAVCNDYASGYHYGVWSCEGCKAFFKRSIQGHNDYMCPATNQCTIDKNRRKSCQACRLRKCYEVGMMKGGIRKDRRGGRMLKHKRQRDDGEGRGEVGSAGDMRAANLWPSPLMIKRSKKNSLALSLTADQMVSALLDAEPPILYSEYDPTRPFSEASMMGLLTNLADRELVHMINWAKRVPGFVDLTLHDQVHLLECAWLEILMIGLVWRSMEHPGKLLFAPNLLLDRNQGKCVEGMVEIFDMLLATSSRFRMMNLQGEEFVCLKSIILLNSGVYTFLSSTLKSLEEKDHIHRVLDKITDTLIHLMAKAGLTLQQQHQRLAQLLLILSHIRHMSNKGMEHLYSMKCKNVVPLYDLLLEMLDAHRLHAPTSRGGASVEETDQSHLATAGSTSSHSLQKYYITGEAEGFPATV
Description: (§1) A 2 μL ligand solution at 2 times the final concentration was dispensed with a micropipette into a 384 well black wall Greiner plate. Then, 2 μL of the protein dye solution was dispensed on top of the ligand solution in the 384 well plate. The plates were spun to ensure nixing of the protein-dye and ligand solutions followed by layering of 1 μL of silicone oil to prevent evaporation during heating of the samples. […] The values for the co-regulators represent a change in Tm stabilization from the receptor-ligand ΔTm values.

[2] = target: T2, ER-β (Homo sapiens, UniProt Q92731); conditions: ligand 40 μM; for Change in Tm stabilization from receptor-ligand ΔTm, SRC1: SRC-1 20 μM; for Observed ΔTm stabilization, Ligand: no co-activator
[3] = target: T2, ER-β; test: Microplate thermal shift (Thermofluor) of ER-β with ligands and co-regulators, Example 1; assay type: binding; parameters: Observed ΔTm stabilization, ligand alone / Change in Tm stabilization from receptor-ligand ΔTm, SRC-3 / Change in Tm stabilization from receptor-ligand ΔTm, NcoR1-NR1: unit not given here; conditions: ER-β 8 μM, ligand 20 μM
Description: as §1

[4] = target: T1, ER-α; test: biochemical; remark: listed apart in the source
Description: Table 4, shown below, is a summary of the data obtained for ER-α and ER-β in the presence of the coactivator proteins SRC-1 SRC-2 and SRC-3 and in the presence of seven ligands. The concentration of ER-α in all experiments was 8 μM, the ligand concentration was 40 μM, SRC-1 and SRC-3 were at 20 μM.
(§2) A 2 μL ligand solution at 2 times the final concentration was dispensed with a micropipette into a 384 well black wall Greiner plate. Then 2 μL of the protein dye solution was dispensed on top of the ligand solution in the 384 well plate. The plates were spun to ensure mixing of the protein-dye and ligand solutions followed by layering of 1 μL of silicone oil to prevent evaporation during heating of the samples. Data were collected on a Thermofluor apparatus and data were analyzed using software that employs a non-linear Marquardt algorithm. Reported results are the average of four experiments. The values for the co-regulators represent a change in Tm stabilization from the receptor-ligand ΔTm values.
FIG. 3 illustrates binding constants, Ka, for co-activator proteins SRC-1, SRC-2 and SRC-3 in the presence of ER-α ligands. FIG. 4 illustrates binding constants, Ka, for co-activator proteins SRC-1, […] in the presence of ER-β ligands Binding constants were calculated from the observed induced ligand and co-regulator stabilization of the nuclear receptor.

[5] = target: T3, PPAR-γ (Homo sapiens, UniProt P37231); test: Microplate thermal shift of PPAR-γ with ligands, co-activator peptide and co-repressor peptide NCoR-1, Example 5; assay type: binding; conditions: for Observed stabilization of PPAR-γ, SRC1-NR2 / Observed stabilization of PPAR-γ, NCoR-1 / Observed stabilization of PPAR-γ, Ligand: PPAR-γ 8 μM, ligand 40 μM; for Observed stabilization of PPAR-γ, SRC1-NR2: co-activator peptide 200 μM; for Observed stabilization of PPAR-γ, NCoR-1: co-repressor peptide NCoR-1 200 μM; for Observed stabilization of PPAR-γ, Ligand: no peptide; for Thermofluor Prediction (PPAR-γ): based on relative affinities for co-activator and co-repressor peptides, partial = partial agonist
T3 sequence (P37231 1-505): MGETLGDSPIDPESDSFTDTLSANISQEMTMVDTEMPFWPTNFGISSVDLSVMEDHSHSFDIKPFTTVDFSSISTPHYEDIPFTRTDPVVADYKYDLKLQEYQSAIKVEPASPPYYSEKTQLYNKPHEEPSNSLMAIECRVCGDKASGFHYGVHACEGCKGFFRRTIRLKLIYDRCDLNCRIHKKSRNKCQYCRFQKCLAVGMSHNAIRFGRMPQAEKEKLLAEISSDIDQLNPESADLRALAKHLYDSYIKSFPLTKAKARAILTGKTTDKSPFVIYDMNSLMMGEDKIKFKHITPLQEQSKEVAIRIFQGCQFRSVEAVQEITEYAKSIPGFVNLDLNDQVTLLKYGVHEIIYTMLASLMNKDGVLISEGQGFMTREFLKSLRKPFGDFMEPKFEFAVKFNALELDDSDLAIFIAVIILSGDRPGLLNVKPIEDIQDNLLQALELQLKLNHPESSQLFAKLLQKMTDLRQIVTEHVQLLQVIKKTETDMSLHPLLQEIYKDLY
Description: as §2, with “The experiments were performed in 25 mM HEPES pH 7.9, 200 mM NaCl, […] and in the presence of 50 μM dapoxyl-2-amino-ethyl sulfonamide. A” for “A”, “experiments.” for “experiments. The values for the co-regulators represent a change in Tm stabilization from the receptor-ligand ΔTm values.”

[6] = target: T3, PPAR-γ; conditions: reported in literature; partial = partial agonist; cited from earlier work
[7] = target: T2, ER-β; test: biochemical
[8] = target: T1, ER-α; test: Microplate thermal shift of ER-α against a panel of steroid ligands, Example 2; assay type: binding; conditions: ER-α 8 μM, ligand 20 μM, 25 mM phosphate pH 8.0; average of four experiments
Description: The concentration of ER-α in all of the experiments was 8 μM and the ligand concentration was 20 μM.
A 2 μL ligand solution at 2 times the final concentration was dispensed with a micropipette into a 384 well black wall Greiner plate. Then, 2 μL of the protein dye solution was dispensed on top of the ligand solution in the 384 well plate. The plates were spun to ensure mixing of the protein-dye and ligand solutions followed by layering of 1 μL of silicone oil to prevent evaporation during heating of the samples.

[9] = read-out: Change in Tm stabilization from receptor-ligand ΔTm, SRC1
[10] = read-out: Change in Tm stabilization from receptor-ligand ΔTm, SRC3

T2 sequence (Q92731 whole entry, species assumed): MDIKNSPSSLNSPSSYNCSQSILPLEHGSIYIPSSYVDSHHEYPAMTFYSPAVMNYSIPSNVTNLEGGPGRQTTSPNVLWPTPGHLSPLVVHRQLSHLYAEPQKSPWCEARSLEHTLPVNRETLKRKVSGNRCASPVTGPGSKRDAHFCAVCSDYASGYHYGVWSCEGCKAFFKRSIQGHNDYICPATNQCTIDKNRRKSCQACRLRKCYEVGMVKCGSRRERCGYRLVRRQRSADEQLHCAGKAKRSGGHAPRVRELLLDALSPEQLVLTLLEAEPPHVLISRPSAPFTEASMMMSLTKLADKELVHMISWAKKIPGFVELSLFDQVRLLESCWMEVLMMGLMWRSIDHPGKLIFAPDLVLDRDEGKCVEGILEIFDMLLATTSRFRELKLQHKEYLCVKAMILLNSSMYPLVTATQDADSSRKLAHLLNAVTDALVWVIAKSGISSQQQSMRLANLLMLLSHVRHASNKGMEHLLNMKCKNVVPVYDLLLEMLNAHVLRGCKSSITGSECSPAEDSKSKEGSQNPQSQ

Molecule: 4-hydroxytamoxifen [4-OH-tamoxifen]
- Classification as agonist or antagonist for ER-α [1]: antagonist

Molecule: 17-α-ethylene-estradiol [17-α-ethylene-E2]
- Change in Tm stabilization from receptor-ligand ΔTm, SRC1 [2]: 1.1

Molecule: COc1cc2c(cc1O)CC[C@@H]1[C@@H]2CC[C@]2(C)[C@@H](O)CC[C@@H]12 [2-methoxy-E2, 2-methoxy-estradiol]
- Change in Tm stabilization from receptor-ligand ΔTm, NcoR1-NR1 ([1]; ER-α 8 μM, ligand 20 μM, co-repressor peptide NCoR-1 100 μM): −0.7
- Observed ΔTm stabilization, ligand alone ([1]; ER-α 8 μM, ligand 20 μM, no co-regulator, average of four experiments): 3.5
- Classification as agonist or antagonist for ER-α ([1]; if screened against a panel of co-regulators as in Example 1): agonists
- Change in Tm stabilization from receptor-ligand ΔTm, SRC1-NR2 ([3]; co-activator peptide SRC1-NR2 100 μM): 4.4
- Change in Tm stabilization from receptor-ligand ΔTm, SRC3-NR2 ([3]; co-activator peptide SRC3-NR2 100 μM): 4.4
- Change in Tm stabilization from receptor-ligand ΔTm, SRC-3 ([3]; co-activator protein SRC-3 11 μM): 2.5
- Change in Tm stabilization from receptor-ligand ΔTm, NcoR1-NR1 ([3]; co-repressor peptide NCoR-1 100 μM): −0.7
- Observed ΔTm stabilization, ligand alone ([3]; no co-regulator, average of four experiments): 2.9
- Change in Tm stabilization from receptor-ligand ΔTm, SRC1 [2]: 1.0
- Change in Tm stabilization from receptor-ligand ΔTm, SRC3 ([2]; SRC-3 20 μM): 2.5
- Change in Tm stabilization from receptor-ligand ΔTm, SRC2 ([2]; co-activator protein SRC-2): 2.4
- Observed ΔTm stabilization, Ligand [2]: 2.9
- Change in Tm stabilization from receptor-ligand ΔTm, SRC1 ([4]; ER-α 8 μM, ligand 40 μM, SRC-1 20 μM): 2.1
- Observed ΔTm stabilization, Ligand ([4]; ER-α 8 μM, ligand 40 μM, no co-activator): 3.5

Molecule: CC(C)(c1ccc(OCC2CO2)cc1)c1ccc(OCC2CO2)cc1 (stereo not drawn) [BADGE]
- Observed stabilization of PPAR-γ, SRC1-NR2 [5]: 1.1
- Observed stabilization of PPAR-γ, NCoR-1 [5]: 5.5
- Observed stabilization of PPAR-γ, Ligand [5]: 1.1
- Thermofluor Prediction (PPAR-γ) [5]: Antagonist
- Literature profile of ligand [6]: Antagonist γ

Molecule: C[C@]12CC[C@@H]3c4ccc(O)cc4CC[C@H]3[C@@H]1CC[C@@H]2O [Estradiol]
- ΔTm at 20 µM [7, 9]: 0.5 °C

Molecule: O=C(Nc1ccccc1)c1cc([N+](=O)[O-])ccc1Cl [GW9662]
- Observed stabilization of PPAR-γ, SRC1-NR2 [5]: 1.2
- Observed stabilization of PPAR-γ, NCoR-1 [5]: 3.5
- Observed stabilization of PPAR-γ, Ligand [5]: 5.9
- Thermofluor Prediction (PPAR-γ) [5]: Antagonist
- Literature profile of ligand [6]: Antagonist γ

Molecule: C[C@]12CC[C@@H]3c4ccc(O)cc4C[C@@H](CCCCCCCCC[S+]([O-])CCCC(F)(F)C(F)(F)F)[C@H]3[C@@H]1CC[C@@H]2O (stereo partly drawn) [ICI-182780]
- Co-activator recruitment / additional stabilization, conclusion in words ([1]; from Table 1, both receptors ER-α and ER-β): no ability to recruit co-activators
- ΔTm at 11 µM ([1]; read-out: Change in Tm stabilization from receptor-ligand ΔTm, SRC-3): 0.5 °C
- ΔTm at 11 µM ([3]; co-activator protein SRC-3 11 μM, read-out: Change in Tm stabilization from receptor-ligand ΔTm, SRC-3): 0.9 °C
- ΔTm at 20 µM [7, 9]: 0.5 °C
- ΔTm at 20 µM [7, 10]: 0.9 °C
- Observed ΔTm stabilization, Ligand [2]: 16.7
- Co-activator recruitment, conclusion in words ([4]; from Table 4 and FIGS. 3 and 4, SRC-1, SRC-2, SRC-3, ER-α (b172 also ER-β)): very little ability to recruit co-activator
- ΔTm at 20 µM [4, 9]: 0.4 °C
- ΔTm at 20 µM [4, 10]: 0.5 °C

Molecule: Cc1cccc(Nc2cc(Cl)nc(SCC(=O)O)n2)c1C [WY14643]
- Observed stabilization of PPAR-γ, SRC1-NR2 [5]: 1.5
- Observed stabilization of PPAR-γ, NCoR-1 [5]: 5.0
- Observed stabilization of PPAR-γ, Ligand [5]: 1.0
- Thermofluor Prediction (PPAR-γ) [5]: Antagonist
- Literature profile of ligand [6]: Partial α, antagonist γ

Molecule: C[C@]12CCC(=O)C=C1CC[C@@H]1[C@@H]2C(=O)C[C@@]2(C)[C@H]1CC[C@]2(O)C(=O)CO [cortisone]
- ΔTm [8]: 0.01 °C
